Drawing on publication PMC12239475, “Bioprocessing and characterization of thermostable phytase from Aspergillus terreus, an endophyte of Catharanthus roseus, with a potential activity to hydrolyze phytic acid in wheat bran” (BMC Biotechnology, 2025), this text covers Km for three compounds.

This test relates to T1, phytase from A. terreus.
T1 construct: gene phyA; native, secreted; purified from solid-state culture on wheat bran (acetone, Sephadex G100, Sepharose 4B); 85 kDa subunit by SDS-PAGE
Briefly: released inorganic phosphate, ammonium molybdate colorimetry at […] nm. Conditions: standard assay: potassium phosphate buffer pH 7.4, 40 °C, 15 min, table title misprinted as A. flavus GST. It counts as biochemical, Aspergillus terreus.
As for `O=P(O)(O)O[C@H]1[C@H](OP(=O)(O)O)[C@@H](OP(=O)(O)O)[C@H](OP(=O)(O)O)[C@@H](OP(=O)(O)O)[C@H]1OP(=O)(O)O` [Phytic acid], the Km was 25 µM.
On to `O=P(O)(O)OC[C@H]1OC(O)(COP(=O)(O)O)[C@@H](O)[C@@H]1O` (stereo partly drawn) [Fructose 1,6-diphosphate], for which the Km stood at 280 µM.
For `Nc1ncnc2c1ncn2[C@@H]1O[C@H](COP(=O)(O)OP(=O)(O)OP(=O)(O)O)[C@@H](O)[C@H]1O` [ATP] the value was 190 µM.
